Results as given in ChEMBL document CHEMBL1151598, “Synthesis of in vivo potent antimalarial 1,2,4-trioxanes” (Bioorg Med Chem Lett, 1992).
Activity calls are given as the source filed them. No cut-off for these calls is given here.

What was measured:
Mus musculus [1] = assay: Compound was tested for in vivo antimalarial activity against Plasmodium berghei in male mice (Mus musculus) at dose of 30 mg/kg (ip); A - Active; assay type: functional, organism-based; set-up: dose 30 mg/kg
Mus musculus [2] = assay: Compound was tested for in vivo antimalarial activity against Plasmodium berghei in male mice (Mus musculus) at dose of 90 mg/kg (intraperitoneal); A - Active; assay type: functional, organism-based; set-up: dose 90 mg/kg

SMILES	Activity (Mus musculus [1])	Activity (Mus musculus [2])
C=C(c1ccc(Cl)cc1)C1COC2(OO1)C1CC3CC(C1)CC2C3 (stereo not drawn)	Active	Active
C=C(c1ccc(F)cc1)C1COC2(OO1)C1CC3CC(C1)CC2C3 (stereo not drawn)		Active
C=C(c1ccc(C)cc1)C1COC2(OO1)C1CC3CC(C1)CC2C3 (stereo not drawn)		Active
C=C(c1ccc(C)cc1C)C1COC2(OO1)C1CC3CC(C1)CC2C3 (stereo not drawn)		Active
C=C(c1ccccc1)C1COC2(OO1)C1CC3CC(C1)CC2C3 (stereo not drawn)		Active
C=C(c1ccc(OC)cc1)C1COC2(OO1)C1CC3CC(C1)CC2C3 (stereo not drawn)	Active	Active
